According to PubChem BioAssay (NCI):
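Compound exposure: 48 hours, 5 concentrations, 96-well plates. GI50 = concentration required for 50% inhibition of growth. TGI: concentration producing complete growth inhibition.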

Experiments:
Assay in all cases: NCI tumour cell line growth inhibition, 48 h
HCT-116 colon = system: HCT-116 colon
HT29 colon = system: HT29 colon
NCI-H226 lung = system: NCI-H226 lung
NCI/ADR-RES ovarian = system: NCI/ADR-RES ovarian
RXF 393 renal = system: RXF 393 renal
SF-268 CNS = system: SF-268 CNS
SK-MEL-5 melanoma = system: SK-MEL-5 melanoma
SR leukemia = system: SR leukemia
U251 CNS = system: U251 CNS
UACC-257 melanoma = system: UACC-257 melanoma

Structure (SMILES): COc1ccc2c(ccc3oc([N+](=O)[O-])cc32)c1
- GI50 (HCT-116 colon): 0.0487 µM
- TGI (HCT-116 colon): 0.92 µM
- GI50 (HT29 colon): 0.202 µM
- TGI (HT29 colon): 0.874 µM
- GI50 (NCI-H226 lung): 0.193 µM
- TGI (NCI-H226 lung): 0.629 µM
- GI50 (NCI/ADR-RES ovarian): 177 nM
- TGI (NCI/ADR-RES ovarian): 1.05 µM
- GI50 (RXF 393 renal): 70.2 nM
- TGI (RXF 393 renal): 0.223 µM
- GI50 (SF-268 CNS): 0.176 µM
- TGI (SF-268 CNS): 1.87 µM
- GI50 (SK-MEL-5 melanoma): 41.3 nM
- TGI (SK-MEL-5 melanoma): 0.142 µM
- GI50 (SR leukemia): 74.8 nM
- TGI (SR leukemia): 17.6 µM
- GI50 (U251 CNS): 0.197 µM
- TGI (U251 CNS): 0.578 µM
- GI50 (UACC-257 melanoma): 0.137 µM
- TGI (UACC-257 melanoma): 0.43 µM

Structure (SMILES): COc1cc(-c2cn(-c3ccc(F)cc3)c(=O)[nH]2)cc(OC)c1OC
- GI50 (HCT-116 colon): > 100 µM
- TGI (HCT-116 colon): > 100 µM
- GI50 (HT29 colon): > 100 µM
- TGI (HT29 colon): > 100 µM
- GI50 (NCI-H226 lung): > 100 µM
- TGI (NCI-H226 lung): > 100 µM
- GI50 (NCI/ADR-RES ovarian): > 100000 nM
- TGI (NCI/ADR-RES ovarian): > 100 µM
- GI50 (RXF 393 renal): > 100000 nM
- TGI (RXF 393 renal): > 100 µM
- GI50 (SF-268 CNS): > 100 µM
- TGI (SF-268 CNS): > 100 µM
- GI50 (SK-MEL-5 melanoma): > 100000 nM
- TGI (SK-MEL-5 melanoma): > 100 µM
- GI50 (SR leukemia): > 100000 nM
- TGI (SR leukemia): > 100 µM
- GI50 (U251 CNS): > 100 µM
- TGI (U251 CNS): > 100 µM
- GI50 (UACC-257 melanoma): > 100 µM
- TGI (UACC-257 melanoma): > 100 µM

Structure (SMILES): CCOC(=O)CC1C(CNC(=O)NC)OC(n2cnc3c(NC(=O)Nc4ccccc4)ncnc32)C1O[Si](C)(C)C(C)(C)C (centres undefined)
- GI50 (HCT-116 colon): 3.2 µM
- TGI (HCT-116 colon): 16.1 µM
- GI50 (HT29 colon): 4.2 µM
- TGI (HT29 colon): > 100 µM
- GI50 (NCI-H226 lung): > 100 µM
- TGI (NCI-H226 lung): > 100 µM
- GI50 (NCI/ADR-RES ovarian): > 100000 nM
- TGI (NCI/ADR-RES ovarian): > 100 µM
- GI50 (RXF 393 renal): 2010 nM
- TGI (RXF 393 renal): 4.63 µM
- GI50 (SF-268 CNS): 6.53 µM
- TGI (SF-268 CNS): 27 µM
- GI50 (SK-MEL-5 melanoma): 4340 nM
- TGI (SK-MEL-5 melanoma): > 100 µM
- GI50 (SR leukemia): 2230 nM
- TGI (SR leukemia): 7.07 µM
- GI50 (U251 CNS): 4.69 µM
- TGI (U251 CNS): 20.9 µM
- GI50 (UACC-257 melanoma): 5.68 µM
- TGI (UACC-257 melanoma): > 100 µM

Structure (SMILES): CCOc1cc(CCNC)c2c(ccc3ccc(OC)c(O)c32)c1OC
- TGI (HCT-116 colon): 22.1 µM
- TGI (HT29 colon): 30.7 µM
- TGI (NCI-H226 lung): 46.9 µM
- TGI (NCI/ADR-RES ovarian): 48.2 µM
- TGI (RXF 393 renal): 31.5 µM
- TGI (SF-268 CNS): 38.3 µM
- TGI (SK-MEL-5 melanoma): 26.1 µM
- TGI (SR leukemia): 20.5 µM
- TGI (U251 CNS): 32.2 µM
- TGI (UACC-257 melanoma): 29.6 µM

Structure (SMILES): COC(=O)C[C@@H]1CC=CC(=O)/C1=C(O)/C=C/c1ccccc1
- GI50 (HCT-116 colon): 0.169 µM
- TGI (HCT-116 colon): 0.329 µM
- GI50 (HT29 colon): 0.268 µM
- TGI (HT29 colon): 0.774 µM
- GI50 (NCI-H226 lung): 2.05 µM
- TGI (NCI-H226 lung): 7.55 µM
- GI50 (NCI/ADR-RES ovarian): 308 nM
- TGI (NCI/ADR-RES ovarian): 1.97 µM
- GI50 (RXF 393 renal): 295 nM
- TGI (RXF 393 renal): 0.888 µM
- GI50 (SF-268 CNS): 1.37 µM
- TGI (SF-268 CNS): 3.75 µM
- GI50 (SK-MEL-5 melanoma): 1410 nM
- TGI (SK-MEL-5 melanoma): 2.79 µM
- GI50 (SR leukemia): 275 nM
- GI50 (U251 CNS): 0.354 µM
- TGI (U251 CNS): 1.28 µM
- GI50 (UACC-257 melanoma): 1.34 µM
- TGI (UACC-257 melanoma): 2.86 µM

Structure (SMILES): COc1ccc2cn3c4ccc(O)cc4[nH]c(=O)c3c2c1
- GI50 (HCT-116 colon): 0.046 µM
- TGI (HCT-116 colon): 1.95 µM
- GI50 (HT29 colon): 0.273 µM
- TGI (HT29 colon): 2.85 µM
- GI50 (NCI-H226 lung): 0.313 µM
- TGI (NCI-H226 lung): 22.3 µM
- GI50 (NCI/ADR-RES ovarian): 67.5 nM
- TGI (NCI/ADR-RES ovarian): 14.2 µM
- GI50 (RXF 393 renal): 44.7 nM
- TGI (RXF 393 renal): 1.04 µM
- GI50 (SF-268 CNS): 0.217 µM
- TGI (SF-268 CNS): 17.5 µM
- GI50 (SK-MEL-5 melanoma): 25.7 nM
- TGI (SK-MEL-5 melanoma): 3.45 µM
- GI50 (SR leukemia): 55.6 nM
- TGI (SR leukemia): 3.87 µM
- GI50 (U251 CNS): 0.153 µM
- TGI (U251 CNS): 12.4 µM
- GI50 (UACC-257 melanoma): 8.08 µM
- TGI (UACC-257 melanoma): 24.2 µM

Structure (SMILES): COc1ccc(-c2cncn2-c2ccc(-c3nc4cc(OC)c(OC)c(OC)c4s3)cc2)cc1N
- GI50 (HCT-116 colon): 3.78 µM
- TGI (HCT-116 colon): > 100 µM
- GI50 (HT29 colon): 3.87 µM
- TGI (HT29 colon): > 100 µM
- GI50 (NCI-H226 lung): 6.7 µM
- TGI (NCI-H226 lung): > 100 µM
- GI50 (NCI/ADR-RES ovarian): 3120 nM
- TGI (NCI/ADR-RES ovarian): > 100 µM
- GI50 (RXF 393 renal): 5980 nM
- TGI (RXF 393 renal): > 100 µM
- GI50 (SF-268 CNS): 47 µM
- TGI (SF-268 CNS): > 100 µM
- GI50 (SK-MEL-5 melanoma): 1730 nM
- TGI (SK-MEL-5 melanoma): 4.4 µM
- GI50 (SR leukemia): 3430 nM
- TGI (SR leukemia): > 100 µM
- GI50 (U251 CNS): 6 µM
- TGI (U251 CNS): > 100 µM
- GI50 (UACC-257 melanoma): > 100 µM
- TGI (UACC-257 melanoma): > 100 µM

Structure (SMILES): C=C(C)[C@@H]1CC[C@]2(COC(=O)c3ccccc3C(=O)O)CC[C@]3(C)[C@H](CC[C@@H]4[C@@]5(C)CC[C@H](OC(=O)c6ccccc6C(=O)O)C(C)(C)[C@@H]5CC[C@]43C)[C@@H]12
- GI50 (HCT-116 colon): 33.1 µM
- TGI (HCT-116 colon): > 100 µM
- GI50 (HT29 colon): 46 µM
- TGI (HT29 colon): > 100 µM
- GI50 (NCI-H226 lung): 32 µM
- TGI (NCI-H226 lung): > 100 µM
- GI50 (NCI/ADR-RES ovarian): 67600 nM
- TGI (NCI/ADR-RES ovarian): > 100 µM
- GI50 (RXF 393 renal): 22600 nM
- TGI (RXF 393 renal): 77.3 µM
- GI50 (SF-268 CNS): 26.6 µM
- TGI (SF-268 CNS): > 100 µM
- GI50 (SK-MEL-5 melanoma): 99200 nM
- TGI (SK-MEL-5 melanoma): > 100 µM
- GI50 (SR leukemia): 27300 nM
- TGI (SR leukemia): 74.1 µM
- GI50 (U251 CNS): 23.1 µM
- TGI (U251 CNS): 77.7 µM
- GI50 (UACC-257 melanoma): 71.3 µM
- TGI (UACC-257 melanoma): > 100 µM
